We go through one molecule from PMC10002220, “In Vivo Reversal of P-Glycoprotein-Mediated Drug Resistance in a Breast Cancer Xenograft and in Leukemia Models Using a Novel, Potent, and Nontoxic Epicatechin EC31” (International Journal of Molecular Sciences, 2023).

Read-outs that look alike come from different tables or passages of the source.

Data set [1] concerns P-gp. On the set-up: method as in PMID 25985195, PMID 34597896. The note with it: cited from earlier work.
In a further data set the test system is K562/P-gp cells. In words: EC31 efflux in K562/P-gp cells. The format is cell-based, human. The conditions noted are these: after 150 min of efflux, preincubated with 1 µM. The procedure: N = 3 independent experiments.
After incubation, the medium was removed, and cells were washed with cold PBS twice. To the cell pellet, 300 μL of acetonitrile was added. The cells were sonicated for 10 min at 50 Hz using Intertek-CD-3800(A) sonicator. The lysed cells were then spun at 14,000 rpm for 10 min at room temperature. The supernatant containing EC31 was saved and was filtered with 0.45 µm syringe filter before UPLC-MS/MS analysis. For the efflux assay, the cells were preincubated with 1 μM EC31 at 37 °C for 2.5 h. The cells were then washed with PBS, were resuspended in drug-free medium, and were further incubated at 37 °C. The cells were collected at 0, 30, 60, and 150 min, respectively. The intracellular EC31 at different time points was analyzed as described in the Section 4.9.

Data set [2] can be described thus: Pharmacokinetics of methylated catechin derivatives in plasma. The format is in vivo, BALB/c mice. The conditions noted are these: BALB/c, mouse; for AUC(0-inf): read-out: AUC0-infinity (converted). As to the method: Figure 4 Pharmacokinetics of methylated catechin derivatives and their effects on the PK of PTX. BALB/c mice were i.v. injected with 10 mg/kg or i.p. injected with 30 mg/kg of modulators. At 10, 30, 60, 180, 420, 840, and 1080 min postadministration, animals were sacrificed to collect their blood, and then the plasma concentration of modulator was determined using UPLC-MS/MS. The % of bioavailability of each modulator injected through i.p. injection route was calculated by comparing it to its plasma level when injected via i.v. injection. […] (E) Pharmacokinetic (PK) profiles of 4 potent methylated catechin derivatives were summarized. (F) The effect of modulators (GC51, EC31, or C25) on the PK of PTX was firstly determined through i.p. injection of modulator at 30 mg/kg 1 h prior to i.v. injection of 12 mg/kg PTX. At 10, 30, 60, 120, 240, and 420 min postadministration of PTX, animals were sacrificed. Plasma level of PTX was quantified through LC/MSMS. The dashed line indicates the corresponding EC50 of modulator in vitro for reversing PTX resistance. […] There were 3 mice at each time point. All pharmacokinetic parameters were calculated with the pharmacokinetic software Summit® PK solution. Two-tailed test was conducted for the AUC value of PTX alone and cotreatment. […] N.S. = not significant. / = not applicable.
In group 1, BALB/c mice were injected intravenously (i.v.) with 10 mg/kg of modulator, and their blood was collected at 10, 30, 60, 120, 240, and 480 min postadministration. In group 2, BALB/c mice were injected intraperitoneally (i.p.) with 30 mg/kg of modulator, and their blood was collected at 10, 30, 60, 180, 420, 840, and 1080 min postadministration.
The pharmacokinetics of PTX was studied with or without the coadministered modulator. PTX (12 mg/kg i.v.) alone was injected into the BALB/c mice. For the combination study, modulator (30 mg/kg i.p.) was injected 1 h before injecting PTX (12 mg/kg i.v.). The blood was collected at 10, 30, 60, 120, 240, and 420 min after PTX administration. Blood samples were spun at 14,000 rpm for 10 min at 4 °C to collect plasma supernatant. Plasma concentration of methylated catechin derivatives or PTX was determined through UPLC-QQQ-MS as described in Section 4.9. Pharmacokinetic parameters were analyzed with PK Solutions 2.0 (Summit Research Service, Ashland, OH, USA).

Data set [3] has as its target P-gp (Homo sapiens, UniProt P08183). Briefly: Vanadate-sensitive P-gp ATPase activity assay (P-gp-Glo). The note with it: 70 µM.
Procedure: (A) Effect of EC31 on vanadate-sensitive P-gp ATPase was studied. EC31, C25, and EGCG at different concentrations (10, 50, and 70 µM) were incubated with recombinant human P-gp microsomes and MgATP with or without sodium vanadate. After stopping the reaction, the remaining ATP level was determined by measuring the luciferase-generated luminescent signal. Vanadate-inhibitable P-gp ATPase activity was determined by calculating the luminescence signal in the samples with or without sodium vanadate. […] P-gp ATPase activity caused by compounds was normalized to basal P-gp ATPase activity (human P-gp microsome treated with DMSO) and was presented as fold change. A dashed line at 1.0-fold change represented the basal P-gp ATPase activity. […] The values in this figure were presented as mean ± standard error of mean. N = 3 independent experiments.
P-gp ATPase activity was measured with P-gp-Glo assay system (Promega, #V3601) with human P-gp membrane vesicles as reported previously [32]. […] The reaction was initiated by adding MgATP and was then incubated at 37 °C for 1 h. […] The remaining ATP signal of luminescence was measured with a Clariostar microplate reader (BMG Labtech, Ortenberg, Germany). Vanadate-inhibitable P-gp ATPase activity was determined by calculating the luminescence signal in the samples with or without sodium vanadate.
In a further data set the test system is fibroblast cells. More on the design: method as in PMID 25985195, PMID 34597896. The note with it: cited from earlier work.

P-gp (Homo sapiens, UniProt P08183), sequence (P08183 whole entry): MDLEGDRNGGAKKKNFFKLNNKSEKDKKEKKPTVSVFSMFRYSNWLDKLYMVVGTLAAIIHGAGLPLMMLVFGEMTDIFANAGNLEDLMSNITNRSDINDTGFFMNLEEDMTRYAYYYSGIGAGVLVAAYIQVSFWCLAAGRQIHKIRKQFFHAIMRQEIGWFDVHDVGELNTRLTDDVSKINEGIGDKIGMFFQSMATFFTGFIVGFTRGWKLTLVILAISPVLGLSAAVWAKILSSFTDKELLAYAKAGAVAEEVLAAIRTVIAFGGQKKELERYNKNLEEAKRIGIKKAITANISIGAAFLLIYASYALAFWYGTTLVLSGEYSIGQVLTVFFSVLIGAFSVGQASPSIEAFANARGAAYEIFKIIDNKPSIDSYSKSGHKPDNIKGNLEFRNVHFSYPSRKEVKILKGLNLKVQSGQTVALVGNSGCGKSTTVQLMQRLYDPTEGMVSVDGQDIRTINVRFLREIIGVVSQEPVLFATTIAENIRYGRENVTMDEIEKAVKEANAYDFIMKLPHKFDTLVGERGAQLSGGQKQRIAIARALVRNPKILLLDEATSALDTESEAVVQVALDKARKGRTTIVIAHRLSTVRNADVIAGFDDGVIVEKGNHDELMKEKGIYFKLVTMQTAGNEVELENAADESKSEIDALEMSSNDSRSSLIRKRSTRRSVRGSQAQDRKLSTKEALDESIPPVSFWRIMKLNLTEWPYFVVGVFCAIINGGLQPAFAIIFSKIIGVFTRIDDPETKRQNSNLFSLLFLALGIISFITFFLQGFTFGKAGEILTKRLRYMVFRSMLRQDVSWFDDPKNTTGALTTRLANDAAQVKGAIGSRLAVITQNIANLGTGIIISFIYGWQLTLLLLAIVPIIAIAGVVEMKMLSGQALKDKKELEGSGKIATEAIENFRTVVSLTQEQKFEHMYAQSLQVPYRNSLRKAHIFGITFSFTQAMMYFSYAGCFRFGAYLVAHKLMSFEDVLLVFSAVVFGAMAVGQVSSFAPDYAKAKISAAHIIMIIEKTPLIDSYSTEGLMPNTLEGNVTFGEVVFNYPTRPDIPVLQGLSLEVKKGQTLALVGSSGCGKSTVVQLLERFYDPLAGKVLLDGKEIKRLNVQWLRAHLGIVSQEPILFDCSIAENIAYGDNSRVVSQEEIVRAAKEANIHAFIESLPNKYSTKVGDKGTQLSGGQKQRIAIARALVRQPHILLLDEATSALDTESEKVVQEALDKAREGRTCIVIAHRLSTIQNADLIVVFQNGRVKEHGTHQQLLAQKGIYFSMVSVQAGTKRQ

What is called AUC(0-t) is the area under the concentration-time curve up to a stated or last time point. The term Cmax denotes the highest concentration seen after dosing. Usually Tmax stands for the time from dosing to the highest level. A word on the half-life: it is the time needed for the level to fall by half in the phase considered. In general, IC50 refers to the concentration that inhibits the measured activity by half. With `COc1cc(OC)c2c(c1)O[C@H](c1ccc(OC)c(OC)c1)[C@H](OC(=O)c1ccc(F)c(NC(=O)c3cc(OC)c(OC)c(OC)c3)c1)C2` [EC31], the “effect on plasma membrane level of P-gp” value in the data set with P-gp [1] was “did not affect”. In addition, the “EC31 remaining in cells” value with K562/P-gp cells is reported as ~16%. Moreover, in data set [2] (ip, 30 mg/kg), the AUC(0-t) is 17800 ng·h/mL, the maximum concentration (Cmax) came out at 5610 ng/mL, the Tmax was 1 h and the half-life turned out to be 3.33 h. Besides, the AUC(0-inf) in data set [2] (ip, 30 mg/kg) was 18400 ng·h/mL. Besides, in data set [2] (iv, 10 mg/kg), the area under the curve AUC(0-t) was 7240 ng·h/mL, the half-life turned out to be 0.912 h and the AUC(0-inf) was 7290 ng·h/mL. Besides, the “P-gp ATPase activity, fold change relative to basal” value on P-gp [3] is listed as ≤ 2.1 fold. In addition, the half-inhibitory concentration (IC50) with fibroblast cells is > 100 µM.
